Reference: patent US6204067A, “Methods of identifying modulators of the estrogen receptor” (Board of Trustees Operating Michigan State University, priority 1999, dated 2001)

Legend:
[1] = system: microsomes isolated from MCF-7/ADR cells; experiment: In vitro acidification of MCF-7/ADR microsomes (acridine orange quenching); type: biochemical
Experimental: Cells were grown in Minimal Essential. Medium supplemented with 10% Fetal Bovine Serum to confluence in 10 level Cell Factories (Nunc, Naperville, Ill.), trypsinized, washed 3× with cold PBS and lysed with a Dounce homogenizer (Pestle A) in 0.25 M sucrose, 20 mM HEPES (pH 7.4), 1 mM DTT, 1 mM EDTA, and 1× protease inhibitor mix (1 μg/ml leupeptin, 1 μ/ml pepstatin A, 1 μg/ml aprotinin, and 16 μM PMSF mixed to 100× before use). The homogenate was centrifuged twice for 10 minutes at 3000×g to remove unbroken cells and nuclei. The supernatant was layered over 20 ml of 0.5 M sucrose (20 mM HEPES (pH 7.4), 1 mM DTT, 1 mM EDTA, 1× protease inhibitor mix) and 1 ml of 2 M sucrose and centrifuged for 1 hour at 100,000 g (Beckman Ti60 Rotor). Microsomes are collected at the 0.5M and 2M interface.
To monitor acidification of the total microsomal fraction, the quenching of AO fluorescence was monitored essentially as described previously [Barasch et al., Nature 352:70-73 (1991)]. Acidic vesicles accumulate AO to high concentrations resulting in the self quenching of the dye and a decrease of the overall fluorescence. Fluorescence was measured on an SLM Aminco-Bowman series 2 luminescence spectrometer with λex =488 nm and λem =530 nm Microsomes (80 μg protein) were suspended in 2.5 ml vesicle buffer (125 mM KCl, 5 mM MgCl2, 20 mM HEPES (pH 7.4), 1 mM DTT, 1 mM EDTA, 2 mM NaN3), with 6 μM AO (5 mM stock in H2 O) in a cuvet. […] After equilibration for 30 minutes at 25° C. 1 mM Tris-ATP was added to begin acidification (100 mM stock, titrated to pH 7.4 with 1 M Tris-base before use). Twenty minutes later, 2.5 μM of nigericin (10 mM stock in EtOH) was added to dissipate any ΔpH formation.
Acridine orange (AO) was used as a probe for lumenal acidification. As vesicles acidify, they accumulate AO to self-quenching concentrations, and deplete the extra-vesicular free AO, resulting in a decrease in total fluorescence. Acidification was initiated by the addition of ATP to a purified microsomal fraction in the absence of cytosol (FIG. 1A, at t=300 sec). […] Nigericin, a K^+ /H^+ exchanger that rapidly dissipates pH gradients, was added at the end of each reaction (t=1500 seconds).

yeast vacuoles = experiment: Vm of yeast vacuoles (Oxonol V); type: biochemical, S. cerevisiae; conditions: 10 μM, KCl or K-gluconate buffer, 2.5 mM ATP
Experimental: Oxonol V is a membrane permeable anionic fluorescent probe that accumulates into the inner leaflet of vesicles with positive Vm, resulting in quenching of fluorescence. Vacuoles were suspended in chloride or gluconate vesicle buffer with 1 μM Oxonol V. Fluorescence was measured with a λex =600 nm and λem =630 nm. After fluorescence has equilibrated, vacuoles were added and the fluorescence is allowed to re-equilibrate. Then, 1 mM Tris-ATP was added and the resulting positive Vm was manifested in fluorescence quenching.
The fluorescent dye Oxonal V was used to monitor Vm.
The Vm was monitored in either KCl or K-gluconate buffer (FIG. 3A).

Question: With `CC/C(=C(\c1ccccc1)c1ccc(OCCN(C)C)cc1)c1ccccc1` [tamoxifen] as the compound, how does the “time to almost complete dissipation of the pH gradient” value ([1]; added 10 minutes after ATP, 8 μM tamoxifen (FIG. 1B)) read?
Answer: Its value is at most 5 minutes.

Question: And the “rate of dissipation of pre-existing pH gradient” value ([1]; added 10 minutes after ATP, tamoxifen 8 μM, bafilomycin A1 100 nM)?
Answer: Its value is “rapidly reversed acidification”.

Question: And the “concentration at which acidification was totally blocked” value ([1]; pre-treated 30 minutes)?
Answer: The value was 8 µM.

Question: What about the “concentration at which inhibition of acidification was evident” value ([1]; pre-treated 30 minutes) of the same compound?
Answer: Its value is 1 µM.

Question: And the “effect on Vm generated by the vATPase” value (yeast vacuoles)?
Answer: Its value is “significantly decreased the Vm”.
